Data published in patent publication EP0061056A1, “5,6-Dimethylpyrrolo (2,3-b) pyridines, process for their preparation and their use as medicaments” (Troponwerke GmbH & Co. KG, priority 1981, dated 1982).
Read-outs that look alike come from different tables or passages of the source.

Tested on: Kaolinödem der Rattenpfote
Assay: Kaolin-induced rat paw oedema (inhibition of inflammation)
Assay type: in vivo, Ratte
Conditions: kaolin oedema of the rat paw
Experimental: Die tierexperimentelle Prüfung der erfindungsgemäßen Verbindungen ergab, daß ein Teil dieser Substanzen sedative und antikonvulsive Eigenschaften besitzt. Darüber hinaus führen sie auch zu einer Hemmung der Entzündung, gemessen an der Beeinflussen des Pfotenödems der Ratte nach Kaolininjektion.
Bei oraler Applikation zeigen die erfindungsgemäßen Verbindungen eine signifikante entzündungshemmende Wirkung am Kaolinödem der Rattenpfote nach Gaben von 25 mg/kg. Bei intramuskulärer Applikation zeigen die Verbindungen bereits bei Dosierung von 10 mg/kg eine deutliche Hemmung der Entzündung. Für die Verbindung des Beispiels 1 beträgt die DE 50 bei oraler Applikation 68 mg/kg und die DE50 bei intramuskulärer Applikation 0,9 mg/kg.

SMILES: Cc1c(C)n(-c2ccccc2)c2nccc(N)c12 [Beispiel 1, 4-Amino-5,6-dimethyl-7-phenyl-pyrrolo[2,3-b]-7-pyridin]
- ED50 (im, intramuscular application, read-out: DE50 (the source's name)): 0.9 mg/kg
- ED50 (oral application, read-out: DE 50 (the source's name)): 68 mg/kg
